Source: ChEMBL document CHEMBL3352759, “Reduction in lipophilicity improved the solubility, plasma-protein binding, and permeability of tertiary sulfonamide RORc inverse agonists” (Bioorg Med Chem Lett, 2014)

Tests used:
[1] = Apparent permeability from apical to basolateral side of MDCK cells at 2 uM by LC-MS/MS analysis; type: ADME, cell-based, Canis lupus familiaris; conditions: dog
[2] = Apparent permeability from basolateral to apical side of MDCK cells at 2 uM by LC-MS/MS analysis; type: ADME, cell-based, Canis lupus familiaris; conditions: dog

Row | Papp A→B at 2 µM [1] [×10⁻⁶ cm/s] | Papp B→A at 2 µM [2] [×10⁻⁶ cm/s] | SMILES
1 | 3 | 2 | CC(C)CN(Cc1ccc(-c2ccc(S(C)(=O)=O)cc2)cc1)S(=O)(=O)Cc1ccccc1
2 | 24 | 24 | CC(=O)N1CCN(c2ccc(CN(C3CCC3)S(=O)(=O)Cc3ccccc3)cc2)CC1
